Laboratory results published in publication PMC12587545, “Noncytotoxic polymyxin derivatives enhance antibiotic action against multidrug-resistant Gram-negative bacteria” (Antimicrobial Agents and Chemotherapy, 2025).
Several values for one entry are separate records, joined by “and”; a condition that tells them apart may be missing. Equal values may be shown once. Positions of bridges follow the written chain, without caps; N, C: chain ends. Non-standard residues stand in square brackets, D forms with d. Residues, ends and D or L forms follow the SMILES beside them. *: point of attachment. Octanoyl = CCCCCCCC(=O)*; Dab = NCC[C@H](N)C(=O)O; Dap = NC[C@H](N)C(=O)O

Key:
P. aeruginosa = assay: Checkerboard assay (antibiotic potentiation); assay type: cell-based, Pseudomonas aeruginosa; details: for MICcompound 1: compound 1 alone
A. baumannii = assay: Checkerboard assay (antibiotic potentiation); assay type: cell-based, Acinetobacter baumannii; details: compound 1 alone
E. coli = assay: Checkerboard assay (antibiotic potentiation); assay type: cell-based, Escherichia coli; details: compound 1 alone
K. pneumoniae = assay: Checkerboard assay (antibiotic potentiation); assay type: cell-based, Klebsiella pneumoniae; details: compound 1 alone
E. cloacae = assay: Checkerboard assay (antibiotic potentiation); assay type: cell-based, Enterobacter cloacae; details: E. cloacae 121887 (colistin-resistant); compound 1 alone
E. faecalis ATCC 29212 = assay: Checkerboard assay (rifampicin potentiation); assay type: cell-based; details: compound 1 alone
Procedure: (§1) The interaction between the compounds and the antibiotics was evaluated using the fractional inhibitory concentration (FIC) index. FIC indices of ≤0.5 is synergistic, 0.5 < × ≤ 4 is additive, whereas >4 is antagonistic ([34]). […] .
(§2) The bacterial isolates were acquired from ATCC or the Canadian Ward Surveillance (CANWARD) study ([56]). CANWARD isolates were collected from infected patients admitted to participating medical centers across Canada.
(§3) The antibiotic and compounds were serially diluted 2-fold in CAMHB along the x- and y-axis, respectively, on a 96-well plate that was subsequently incubated with equal volumes of bacterial inoculum overnight at 37°C. Wells containing only media were used as negative controls, and wells containing only bacteria were used as positive controls. Synergy was measured by the FIC index, which is the summation of the individual FICs of the antibiotic and the compound. The FIC is calculated by dividing the MIC of one agent in the presence of another by the MIC of the agent alone. Turbidity was confirmed with a Molecular Devices (United States) EMax Plus microplate reader at a wavelength of 590 nm. The FBS studies were conducted by following a previously published protocol ([29], [50]). The FBS was inactivated by heating at 56°C for 30 min with constant swirling.

E. faecium ATCC 27270 = assay: Checkerboard assay (rifampicin potentiation); assay type: cell-based; details: compound 1 alone
Procedure: as §1, §2, §3

[1] = test system: Methicillin-resistant S. aureus ATCC 22592; assay: Checkerboard assay (rifampicin potentiation); assay type: cell-based; details: MRSA ATCC 22592; compound 1 alone
Procedure: as §1, §2, §3

P. aeruginosa 259-96916 = assay: Time-kill kinetics assay; details: monotherapy at 8 µg/mL, LB, 37°C, up to 24 h
A. baumannii AB027 = assay: Time-kill kinetics assay; details: monotherapy at 8 µg/mL, LB, 37°C, up to 24 h
Procedure: Bactericidal and bacteriostatic activity correspond to a ≥ 3 log10 and a < 3 log10 decrease in bacterial load after 24 h relative to the starting inoculum, respectively ([39]).
The time- and concentration-dependent killing of the antibiotic/compound combinations was assessed using the time-kill kinetics assay by following a previously described protocol ([27][–][29]). Bacterial culture grown overnight was diluted in phosphate-buffered saline (PBS) to 0.5 McFarland turbidity and was further diluted 1:50 in LB. Bacterial cultures treated with varying concentrations of antibiotic alone, compound alone, or the combination of antibiotic and compound were incubated in a shaking incubator at 250 rpm and at 37°C. At designated time points, 100 µL aliquots were taken from the culture tubes, serially diluted in PBS, and plated on LB agar plates. The bacterial colonies were then counted after incubation of the plates for 18 h at 37°C.

MICcompound 1 (P. aeruginosa; P. aeruginosa 259-96916): >128 µg/mL | MICcompound 1 (P. aeruginosa; P. aeruginosa 262-101856): >128 µg/mL | MICcompound 1 (P. aeruginosa; P. aeruginosa 264-105354): >128 µg/mL | MICcompound 1 (P. aeruginosa; P. aeruginosa 101243 (colistin-resistant)): >128 µg/mL | MICcompound 1 (P. aeruginosa; P. aeruginosa 114228 (colistin-resistant)): >128 µg/mL | MICcompound 1 (P. aeruginosa; P. aeruginosa PAO1, 0% FBS): >128 µg/mL | MICcompound 1 (P. aeruginosa; P. aeruginosa PAO1, 10% FBS (heat-inactivated)): >128 µg/mL | MICcompound 1 (P. aeruginosa; P. aeruginosa PAO1, 25% FBS): >128 µg/mL | MICcompound 1 (P. aeruginosa; P. aeruginosa PAO1, 50% FBS): >128 µg/mL | MICcompound 1 (P. aeruginosa; P. aeruginosa PAO1, [Mg2+] 25 mM): >128 µg/mL | MICcompound 1 (P. aeruginosa; P. aeruginosa PAO1, [Mg2+] 0.4–0.5 mM (CAMHB)): >128 µg/mL | MICcompound (P. aeruginosa; P. aeruginosa PAO1, compound alone): >128 µg/mL | MICcompound 1 (A. baumannii; A. baumannii 92247 (colistin-resistant)): >128 µg/mL | MICcompound 1 (A. baumannii; A. baumannii 110193): 32 µg/mL and 16 µg/mL | MICcompound 1 (A. baumannii; A. baumannii AB027): >128 µg/mL | MICcompound 1 (A. baumannii; A. baumannii ATCC 17978, 0% FBS): 16 µg/mL | MICcompound 1 (A. baumannii; A. baumannii ATCC 17978, 10% FBS (heat-inactivated)): >128 µg/mL | MICcompound 1 (A. baumannii; A. baumannii ATCC 17978, 25% FBS): >128 µg/mL | MICcompound 1 (A. baumannii; A. baumannii ATCC 17978, 50% FBS): >128 µg/mL | MICcompound 1 (A. baumannii; A. baumannii ATCC 17978, [Mg2+] 25 mM): >128 µg/mL | MICcompound 1 (A. baumannii; A. baumannii ATCC 17978, [Mg2+] 0.4–0.5 mM (CAMHB)): 16 µg/mL | MICcompound 1 (E. coli; E. coli 94393 (colistin-resistant)): >128 µg/mL | MICcompound 1 (E. coli; E. coli 94474 (colistin-resistant)): >128 µg/mL | MICcompound 1 (K. pneumoniae; K. pneumoniae 113250 (colistin-resistant)): >128 µg/mL | MICcompound 1 (K. pneumoniae; K. pneumoniae 116381): >128 µg/mL | MICcompound 1 (E. cloacae): >128 µg/mL | MICcompound 1 (E. faecalis ATCC 29212): >128 µg/mL | MICcompound 1 (E. faecium ATCC 27270): >128 µg/mL | MICcompound 1 [1]: >128 µg/mL
Compound: CCCCCCCC(=O)N[C@@H](CN)C(=O)N[C@H](C(=O)N[C@@H](CN)C(=O)N[C@H]1CCNC(=O)[C@H]([C@@H](C)O)NC(=O)[C@H](CN)NC(=O)[C@H](CN)NC(=O)[C@H](CC(C)C)NC(=O)[C@@H](Cc2ccccc2)NC(=O)[C@H](CN)NC1=O)[C@@H](C)O [Compound 1] (Octanoyl-[Dap]T[Dap][Dab][Dap][dF]L[Dap][Dap]T; lactam 4-C)
time-kill outcome (P. aeruginosa 259-96916): decrease in growth up to 4 h, with regrowth occurring at 8 h | time-kill outcome (A. baumannii AB027): growth curves similar to that of untreated bacteria
